Where two headings read alike, the source gives them in different places. Square brackets hold non-standard residues; d marks the D form. Ends that are not written are not given here. Peptide text beside a SMILES is read from it. Cit = NC(=O)NCCC[C@H](N)C(=O)O

Consider 16 compounds from PMC5421785, “Citrullination only infrequently impacts peptide binding to HLA class II MHC” (PLoS ONE, 2017).

In one assay the target is T1, HLA-DRB1*01:01 (Homo sapiens, UniProt P01903+P01911, A100R/D57E/F55L/F60I/F76Y/I96L/L162R/M171V/P40L/Q125E/R42F/V115G/Y59C).
T1 construct: EBV transformed homozygous cell lines were used as sources of MHC molecules; endogenous in cells; host or cells: EBV transformed homozygous cell lines
Put plainly: HLA class II peptide binding, inhibition of radiolabeled peptide binding to purified MHC.

The target in the next assay is T2, HLA-DRB1*04:01 (Homo sapiens, UniProt P01903+P01911, A100K/A169T/F76Y/I96L/K127E/L162R/M171V/N62H/P40V/Q125Y/R42H/S133A/S149N/S66Y/V115G/V209L/W38E).
T2 construct: EBV transformed homozygous cell lines were used as sources of MHC molecules; endogenous in cells; host or cells: EBV transformed homozygous cell lines
Described as above.

Setting [1] is: citrullinated 15-mer (X), purified MHC, inhibition of radiolabeled peptide binding, dash = IC50 >40,000 nM, read-out: DRB1*01:01 binding capacity, Cit peptide (IC50 nM).
[2] abbreviates: citrullinated 15-mer (X), purified MHC, inhibition of radiolabeled peptide binding, dash = IC50 >40,000 nM, read-out: DRB1*04:01 binding capacity, Cit peptide (IC50 nM).
[3] abbreviates: wild-type (unmodified Arg) 15-mer peptide, purified HLA-DRB1*01:01, read-out: DRB1*01:01 binding capacity, WT peptide (IC50 nM).
Where [4] appears, read: wild-type (unmodified Arg) 15-mer peptide, purified HLA-DRB1*04:01, read-out: DRB1*04:01 binding capacity, WT peptide (IC50 nM).
Setting [5] is: read-out: DRB1*01:01 binding capacity, WT peptide (IC50 nM).
The mark [6] stands for this setting: read-out: DRB1*04:01 binding capacity, WT peptide (IC50 nM).
Where [7] appears, read: citrullinated 15-mer peptide (X = citrulline), purified HLA-DRB1*01:01, read-out: DRB1*01:01 binding capacity, Cit peptide (IC50 nM).
[8] abbreviates: citrullinated 15-mer peptide (X = citrulline), purified HLA-DRB1*04:01, read-out: DRB1*04:01 binding capacity, Cit peptide (IC50 nM).

Turning to `CC(C)C[C@H](NC(=O)[C@H](CO)NC(=O)[C@H](Cc1ccc(O)cc1)NC(=O)[C@@H](NC(=O)[C@H](CCCNC(N)=O)NC(=O)[C@@H](NC(=O)[C@H](CO)NC(=O)[C@@H](NC(=O)[C@@H](NC(=O)[C@@H](NC(=O)[C@H](Cc1ccc(O)cc1)NC(=O)[C@H](CO)NC(=O)[C@H](CCCNC(=N)N)NC(=O)[C@H](CO)NC(=O)[C@@H](N)CO)C(C)C)[C@@H](C)O)[C@@H](C)O)[C@@H](C)O)[C@@H](C)O)C(=O)O` [SSRSYVTTSTXTYSL] (H-SSRSYVTTST[Cit]TYSL-OH), the IC50 at HLA-DRB1*01:01 (setting [1]) is 85 nM; at HLA-DRB1*04:01 (setting [2]), 109 nM.

Turning to ERGRTGPAGAAGARG [Collagen 331 WT], the values for the IC50 at HLA-DRB1*01:01 (setting [3]) and on HLA-DRB1*04:01 (setting [4]) were 1610 nM and greater than 40000 nM, respectively.

For the compound `CC(C)C[C@H](NC(=O)[C@H](C)NC(=O)[C@H](CO)NC(=O)CN)C(=O)N[C@@H](CCCNC(=N)N)C(=O)N1CCC[C@H]1C(=O)N[C@@H](CO)C(=O)N[C@H](C(=O)N[C@@H](CO)C(=O)N[C@@H](CCCNC(=N)N)C(=O)N[C@@H](CO)C(=O)N[C@@H](CC(C)C)C(=O)N[C@@H](Cc1ccc(O)cc1)C(=O)N[C@@H](C)C(=O)N[C@@H](CO)C(=O)O)[C@@H](C)O` [Vimentin 41 WT], the half-maximal inhibitory concentration (IC50) on HLA-DRB1*01:01 (setting [5]) was 3.4 nM; on HLA-DRB1*04:01 (setting [6]), 860 nM.

Take VTTSTRTYSLGSALR [Vimentin 31 WT]: the IC50 came to 5 nM on HLA-DRB1*01:01 (setting [5]) and 1220 nM on HLA-DRB1*04:01 (setting [6]).

Turning to `CC(C)C[C@H](NC(=O)[C@H](CCC(N)=O)NC(=O)[C@H](CC(=O)O)NC(=O)[C@@H](NC(=O)[C@H](CCC(N)=O)NC(=O)[C@H](CCCNC(=N)N)NC(=O)[C@H](CCCNC(N)=O)NC(=O)[C@H](CC(C)C)NC(=O)[C@@H](N)CCC(=O)O)C(C)C)C(=O)N[C@H](C(=O)N[C@@H](CC(N)=O)C(=O)N[C@@H](CC(=O)O)C(=O)N[C@@H](CCCCN)C(=O)N[C@@H](C)C(=O)N[C@@H](CCCNC(=N)N)C(=O)O)[C@@H](C)O` [ELXRQVDQLTNDKAR] (H-EL[Cit]RQVDQLTNDKAR-OH), the half-maximal inhibitory concentration (IC50) at HLA-DRB1*01:01 (setting [1]) was determined as 614 nM; at HLA-DRB1*04:01 (setting [2]) it was 13400 nM.

For the compound `CC[C@H](C)[C@H](NC(=O)[C@H](CC(C)C)NC(=O)[C@H](CC(C)C)NC(=O)[C@@H](NC(=O)[C@H](CCCNC(=N)N)NC(=O)[C@H](CCCCN)NC(=O)[C@H](CO)NC(=O)[C@H](Cc1c[nH]cn1)NC(=O)[C@@H](N)[C@@H](C)O)[C@@H](C)O)C(=O)N[C@@H](CCCCN)C(=O)N[C@H](C(=O)N[C@H](C(=O)N[C@@H](CCC(=O)O)C(=O)N[C@H](C(=O)N[C@@H](CCCNC(N)=O)C(=O)O)[C@@H](C)O)C(C)C)[C@@H](C)O` [THSKRTLLIKTVETX] (H-THSKRTLLIKTVET[Cit]-OH), the figures for the IC50 on HLA-DRB1*01:01 (setting [7]) and at HLA-DRB1*04:01 (setting [8]) were 310 nM and 6020 nM, respectively.

In the case of `CC(C)C[C@H](NC(=O)[C@H](C)NC(=O)[C@H](CC(=O)O)NC(=O)[C@@H](N)CC(N)=O)C(=O)N[C@@H](CCCNC(N)=O)C(=O)N[C@@H](CCC(N)=O)C(=O)N[C@@H](C)C(=O)N[C@@H](CCCCN)C(=O)N[C@@H](CCC(N)=O)C(=O)N[C@@H](CCC(=O)O)C(=O)N[C@@H](CO)C(=O)N[C@H](C(=O)N[C@@H](CCC(=O)O)C(=O)N[C@@H](Cc1ccc(O)cc1)C(=O)N[C@@H](CCCNC(=N)N)C(=O)O)[C@@H](C)O` [NDALXQAKQESTEYR] (H-NDAL[Cit]QAKQESTEYR-OH), the IC50 at HLA-DRB1*01:01 (setting [7]) was 22600 nM; at HLA-DRB1*04:01 (setting [8]), greater than 40000 nM.

For the compound `CSCC[C@H](NC(=O)[C@@H](NC(=O)CNC(=O)[C@@H]1CCCN1C(=O)[C@H](CCC(N)=O)NC(=O)CNC(=O)[C@@H](N)CCCNC(N)=O)C(C)C)C(=O)NCC(=O)N[C@@H](Cc1ccccc1)C(=O)N1CCC[C@H]1C(=O)NCC(=O)N1CCC[C@H]1C(=O)N[C@@H](CCCCN)C(=O)NCC(=O)N[C@@H](C)C(=O)O` [XGQPGVMGFPGPKGA] (H-[Cit]GQPGVMGFPGPKGA-OH), the IC50 at HLA-DRB1*01:01 (setting [7]) was 493 nM; at HLA-DRB1*04:01 (setting [8]), greater than 40000 nM.

With `CC[C@H](C)[C@H](NC(=O)CN)C(=O)N[C@@H](C)C(=O)NCC(=O)N[C@@H](C)C(=O)N1CCC[C@H]1C(=O)NCC(=O)N[C@@H](Cc1ccccc1)C(=O)N1CCC[C@H]1C(=O)NCC(=O)N1CCC[C@H]1C(=O)N[C@@H](CCCNC(N)=O)C(=O)NCC(=O)N1CCC[C@H]1C(=O)N1CCC[C@H]1C(=O)O` [GIAGAPGFPGPXGPP] (H-GIAGAPGFPGP[Cit]GPP-OH), the concentration for half-maximal inhibition (IC50) on HLA-DRB1*01:01 (setting [7]) is 565 nM; at HLA-DRB1*04:01 (setting [8]), greater than 40000 nM.

Consider EIATYRKLLEGEESR [Vimentin 396 WT], for which the results for the IC50 at HLA-DRB1*01:01 (setting [3]) and at HLA-DRB1*04:01 (setting [4]) were 52 nM and 3520 nM, respectively.

As to `CC[C@H](C)[C@H](NC(=O)[C@H](Cc1ccc(O)cc1)NC(=O)[C@H](CC(N)=O)NC(=O)[C@H](C)NC(=O)[C@H](Cc1ccccc1)NC(=O)[C@H](CCCNC(=N)N)NC(=O)[C@H](CC(=O)O)NC(=O)[C@H](CC(N)=O)NC(=O)[C@H](CC(C)C)NC(=O)[C@H](CCC(=O)O)NC(=O)[C@H](CCC(N)=O)NC(=O)[C@H](CC(C)C)NC(=O)[C@@H](N)CCC(=O)O)C(=O)N[C@@H](CC(=O)O)C(=O)N[C@@H](CCCCN)C(=O)O` [Vimentin 106 WT], the IC50 is 3070 nM at HLA-DRB1*01:01 (setting [5]) and greater than 40000 nM at HLA-DRB1*04:01 (setting [6]).

In the case of `CC(C)C[C@H](NC(=O)[C@H](C)NC(=O)[C@H](CC(=O)O)NC(=O)[C@@H](N)CC(N)=O)C(=O)N[C@@H](CCCNC(=N)N)C(=O)N[C@@H](CCC(N)=O)C(=O)N[C@@H](C)C(=O)N[C@@H](CCCCN)C(=O)N[C@@H](CCC(N)=O)C(=O)N[C@@H](CCC(=O)O)C(=O)N[C@@H](CO)C(=O)N[C@H](C(=O)N[C@@H](CCC(=O)O)C(=O)N[C@@H](Cc1ccc(O)cc1)C(=O)N[C@@H](CCCNC(N)=O)C(=O)O)[C@@H](C)O` [NDALRQAKQESTEYX] (H-NDALRQAKQESTEY[Cit]-OH), the IC50 is 34200 nM at HLA-DRB1*01:01 (setting [7]) and 39500 nM at HLA-DRB1*04:01 (setting [8]).

With ERGFPGLPGPSGEPG [Collagen 991 WT], the results for the IC50 on HLA-DRB1*01:01 (setting [3]) and on HLA-DRB1*04:01 (setting [4]) were 1280 nM and greater than 40000 nM, respectively.

As to `CC(C)C[C@H](NC(=O)[C@@H](NC(=O)[C@H](CC(N)=O)NC(=O)[C@H](CCC(=O)O)NC(=O)[C@H](C)NC(=O)[C@H](CCC(=O)O)NC(=O)[C@H](CCC(=O)O)NC(=O)[C@@H](N)CCCNC(=N)N)[C@@H](C)O)C(=O)N[C@@H](CCC(N)=O)C(=O)N[C@@H](CO)C(=O)N[C@@H](Cc1ccccc1)C(=O)N[C@@H](CCCNC(N)=O)C(=O)N[C@@H](CCC(N)=O)C(=O)N[C@@H](CC(=O)O)C(=O)N[C@H](C(=O)O)C(C)C` [REEAENTLQSFXQDV] (H-REEAENTLQSF[Cit]QDV-OH), the IC50 on HLA-DRB1*01:01 (setting [1]) worked out at 33300 nM; at HLA-DRB1*04:01 (setting [2]), 11600 nM.

Regarding `CC(C)C[C@H](NC(=O)[C@H](CCC(=O)O)NC(=O)[C@H](C)NC(=O)[C@H](CC(C)C)NC(=O)[C@@H](N)CC(C)C)C(=O)N[C@@H](CCC(=O)O)C(=O)N[C@@H](CCC(N)=O)C(=O)N[C@@H](CC(C)C)C(=O)N[C@@H](CCCCN)C(=O)NCC(=O)N[C@@H](CCC(N)=O)C(=O)NCC(=O)N[C@@H](CCCCN)C(=O)N[C@@H](CO)C(=O)N[C@@H](CCCNC(N)=O)C(=O)O` [LLAELEQLKGQGKSX] (H-LLAELEQLKGQGKS[Cit]-OH), the results for the IC50 at HLA-DRB1*01:01 (setting [1]) and at HLA-DRB1*04:01 (setting [2]) were 428 nM and greater than 40000 nM, respectively.

Consider `CC(C)C[C@H](NC(=O)[C@H](C)NC(=O)[C@H](C)NC(=O)[C@@H](NC(=O)[C@H](CC(C)C)NC(=O)[C@H](CC(=O)O)NC(=O)[C@@H]1CCCN1C(=O)[C@H](CCCCN)NC(=O)[C@@H](N)CO)[C@@H](C)O)C(=O)N[C@@H](CCCNC(=N)N)C(=O)N[C@@H](CC(=O)O)C(=O)N[C@H](C(=O)N[C@@H](CCCNC(N)=O)C(=O)N[C@@H](CCC(N)=O)C(=O)N[C@@H](CCC(N)=O)C(=O)O)C(C)C` [SKPDLTAALRDVXQQ] (H-SKPDLTAALRDV[Cit]QQ-OH), for which the IC50 at HLA-DRB1*01:01 (setting [1]) came out at 5590 nM; on HLA-DRB1*04:01 (setting [2]) it was 29700 nM.

As a reminder, the IC50 is the concentration that gives 50% inhibition.
